Values belong to the molecule of their own block, whether it stands above or below them.
What was measured:
[1] = target: T1, Cytochrome P450 1A1 (Homo sapiens, UniProt P04798); test: Competitive inhibition of […] CYP1A1 expressed in supersomes coexpressing NADPH-CYP reductase using 7-Ethoxyresorufin as substrate measured every 5 mins for 30 mins in presence of NADPH by fluorescence assay; format: ADME; settings: read-out: Ki(app)
T1 sequence (P04798 whole entry): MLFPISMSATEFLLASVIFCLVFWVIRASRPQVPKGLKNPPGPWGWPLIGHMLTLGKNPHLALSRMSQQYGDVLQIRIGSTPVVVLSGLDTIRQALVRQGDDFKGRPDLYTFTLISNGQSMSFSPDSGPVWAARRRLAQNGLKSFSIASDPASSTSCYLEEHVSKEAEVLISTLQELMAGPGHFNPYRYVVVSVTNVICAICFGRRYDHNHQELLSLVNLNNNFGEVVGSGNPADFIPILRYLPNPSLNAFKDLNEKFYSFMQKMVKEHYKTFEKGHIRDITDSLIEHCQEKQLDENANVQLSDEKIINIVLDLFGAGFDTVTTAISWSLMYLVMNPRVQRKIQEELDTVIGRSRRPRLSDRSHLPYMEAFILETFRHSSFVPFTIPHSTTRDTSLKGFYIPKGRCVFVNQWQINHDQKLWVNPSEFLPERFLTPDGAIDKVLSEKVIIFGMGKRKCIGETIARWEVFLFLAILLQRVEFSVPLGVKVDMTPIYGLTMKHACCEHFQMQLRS

[2] = target: T2, Cytochrome P450 1B1 (Homo sapiens, UniProt Q16678); test: Inhibition of human CYP1B1 expressed in Escherichia coli DH5alpha coexpressing human NADPH P450 reductase using 7-ethoxyresorufin as substrate in presence of NADP+ by spectrofluorometeric analysis
T2 sequence (Q16678 whole entry): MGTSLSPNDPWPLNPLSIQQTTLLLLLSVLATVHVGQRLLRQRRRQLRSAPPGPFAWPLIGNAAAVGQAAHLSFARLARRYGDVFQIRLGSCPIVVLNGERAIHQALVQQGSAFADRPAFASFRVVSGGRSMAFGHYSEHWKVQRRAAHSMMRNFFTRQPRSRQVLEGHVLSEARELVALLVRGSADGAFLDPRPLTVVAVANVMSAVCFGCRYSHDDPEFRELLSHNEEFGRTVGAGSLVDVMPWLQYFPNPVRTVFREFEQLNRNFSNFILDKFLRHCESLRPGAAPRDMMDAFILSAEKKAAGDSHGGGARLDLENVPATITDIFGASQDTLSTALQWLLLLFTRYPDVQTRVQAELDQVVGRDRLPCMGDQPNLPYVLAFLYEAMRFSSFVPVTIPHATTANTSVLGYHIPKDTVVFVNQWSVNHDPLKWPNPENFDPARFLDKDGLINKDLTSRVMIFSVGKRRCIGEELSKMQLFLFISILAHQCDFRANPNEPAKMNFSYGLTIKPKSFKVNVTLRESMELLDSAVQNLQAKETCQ

[3] = target: T2, Cytochrome P450 1B1; test: Competitive inhibition of CYP1B1 (unknown origin) expressed in yeast microsomes using (-)benzo[a]pyrene-7R-trans-7,8-dihyrodiol (B[a]P-7,8-diol) as substrate
[4] = target: T2, Cytochrome P450 1B1; test: Inhibition of recombinant human CYP1B1 expressed in Escherichia coli coexpressing human NADPH-cytochrome P450 reductase using 7-ethoxyresorufin as substrate by fluorescence spectrophotometric analysis
[5] = target: T1, Cytochrome P450 1A1; test: Inhibition of recombinant human CYP1A1 expressed in Escherichia coli coexpressing human NADPH-cytochrome P450 reductase using 7-ethoxyresorufin as substrate by fluorescence spectrophotometric analysis; format: ADME
[6] = species on record: Homo sapiens; test: Selectivity index, ratio of IC50 for recombinant human CYP1A1 expressed in Escherichia coli coexpressing human NADPH-cytochrome P450 reductase to IC50 for recombinant human CYP1B1 expressed in Escherichia coli coexpressing human NADPH-cytochrome P450 reductase
[7] = target: T1, Cytochrome P450 1A1; test: Inhibition of recombinant human CYP1A1 expressed in supersomes using 7-ethoxyresorufin O-deethylation as substrate after 5 mins in presence of NADP+ by spectrofluorimetric analysis; format: ADME
[8] = target: T3, Cytochrome P450 1A2 (Homo sapiens, UniProt P05177); test: Inhibition of recombinant human CYP1A2 expressed in supersomes using 7-ethoxyresorufin O-deethylation as substrate after 5 mins in presence of NADP+ by spectrofluorimetric analysis; format: ADME
T3 sequence (P05177 whole entry): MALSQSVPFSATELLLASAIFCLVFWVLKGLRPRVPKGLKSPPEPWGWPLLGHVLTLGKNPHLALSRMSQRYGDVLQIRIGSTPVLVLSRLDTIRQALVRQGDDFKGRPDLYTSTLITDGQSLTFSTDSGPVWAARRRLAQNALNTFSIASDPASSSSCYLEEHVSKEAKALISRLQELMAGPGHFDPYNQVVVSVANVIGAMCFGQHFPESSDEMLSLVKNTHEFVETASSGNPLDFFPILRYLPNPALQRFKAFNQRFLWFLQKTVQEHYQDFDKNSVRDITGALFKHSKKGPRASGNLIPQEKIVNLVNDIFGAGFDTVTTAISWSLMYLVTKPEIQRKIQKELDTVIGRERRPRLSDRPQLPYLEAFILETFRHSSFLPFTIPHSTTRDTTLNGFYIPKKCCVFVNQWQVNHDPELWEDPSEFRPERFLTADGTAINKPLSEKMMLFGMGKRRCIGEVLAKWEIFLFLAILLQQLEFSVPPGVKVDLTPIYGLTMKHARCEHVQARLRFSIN

[9] = target: T2, Cytochrome P450 1B1; test: Inhibition of human CYP1B1 expressed in Escherichia coli DH5alpha coexpressing human NADPH-P450 reductase using 4-estradiol as substrate in presence of NADP+ by HPLC analysis
[10] = target: T2, Cytochrome P450 1B1; test: Inhibition of CYP1B1 (unknown origin) expressed in Escherichia coli DH5alpha coexpressing human NADPH-P450 reductase using 7-Ethoxyresorufin as substrate up to 6 mins in presence of NADP+ by spectrofluorometric analysis
[11] = target: T4, CYP1B1 (Homo sapiens, UniProt Q16678); test: (§1) Inhibition of CYP1B1 (unknown origin) expressed in Escherichia coli DH5alpha coexpressing human NADPH P450 reductase using 7-ethoxyresorufin as substrate after 2 to 6 mins in presence of NADPH by double reciprocal plot analysis; settings: human, probe 7-ethoxyresorufin
T4 sequence (Q16678 whole entry): T2 sequence (Q16678 whole entry)

[12] = target: T2, Cytochrome P450 1B1; test: as §1
[13] = target: T2, Cytochrome P450 1B1; test: Inhibition of human CYP1B1 expressed in Escherichia coli DH5alpha coexpressing human NADPH P450 reductase using 7-ethoxyresorufin as substrate in presence of NADPH by fluorimetric analysis
[14] = target: T1, Cytochrome P450 1A1; test: Inhibition of human CYP1A1 expressed in Escherichia coli DH5alpha coexpressing human NADPH P450 reductase using 7-ethoxyresorufin as substrate in presence of NADPH by fluorimetric analysis; format: ADME
[15] = target: T1, Cytochrome P450 1A1; test: Inhibition of CYP1A1 (unknown origin) expressed in Escherichia coli DH5alpha coexpressing human NADPH-P450 reductase using 7-Ethoxyresorufin as substrate up to 6 mins in presence of NADP+ by spectrofluorometric analysis; format: ADME
[16] = target: T3, Cytochrome P450 1A2; test: Inhibition of CYP1A2 (unknown origin) expressed in Escherichia coli DH5alpha coexpressing human NADPH-P450 reductase using 7-Ethoxyresorufin as substrate up to 6 mins in presence of NADP+ by spectrofluorometric analysis; format: ADME
[17] = target: T1, Cytochrome P450 1A1; test: Inhibition of recombinant CYP1A1 (unknown origin) expressed in Escherichia coli DH5alphaF'Iq coexpressing human NADPH-P450 reductase using E2-d4 as substrate after 10 mins in presence of NADP+; format: ADME
[18] = target: T2, Cytochrome P450 1B1; test: Inhibition of recombinant CYP1B1 (unknown origin) expressed in Escherichia coli DH5alphaF'Iq coexpressing human NADPH-P450 reductase using E2-d4 as substrate after 10 mins in presence of NADP+
[19] = target: T2, Cytochrome P450 1B1; test: Inhibition of CYP1B1 in […] recombinant human cytochrome P450 oxidoreductase using 7-ethoxyresorufin as substrate after 3 mins in presence of NADP+ by fluorescence assay
[20] = target: T2, Cytochrome P450 1B1; test: Inhibition of recombinant CYP1B1 (unknown origin) expressed in supersomes coexpressing NADPH-CYP reductase using 7-ethoxyresorufin as substrate after 15 mins in presence of NADP+ by fluorescence spectrophotometric analysis
[21] = target: T2, Cytochrome P450 1B1; test: Inhibition of recombinant human CYP1B1 expressed in supersomes coexpressing NADPH-CYP reductase using 7-ethoxyresorufin as substrate after 15 mins in presence of NADP+ by Lineweaver-Burk plot analysis

SMILES: C=C(C)[C@@H]1CCC(C)=C[C@H]1c1c(O)cc(CCCCC)cc1O [CANNABIDIOL]
- Ki [1]: 150 nM

SMILES: CC[C@H]1OC(=O)[C@H](C)[C@@H](O[C@H]2C[C@@](C)(OC)[C@@H](O)[C@H](C)O2)[C@H](C)[C@@H](O[C@@H]2O[C@H](C)C[C@H](N(C)C)[C@H]2O)[C@](C)(O)C[C@@H](C)C(=O)[C@H](C)[C@@H](O)[C@]1(C)O [ERYTHROMYCIN]
- IC50 [10]: 40000 nM

SMILES: C#Cc1cc2ccc3cccc4ccc(c1)c2c34
- IC50 [13]: 30 nM
- IC50 [14]: 151 nM

SMILES: CC(C)=CCC/C(C)=C/COc1c2ccoc2cc2oc(=O)ccc12 [BERGAMOTTIN]
- Ki [3]: 587000 nM

SMILES: N#C[Se]Cc1cccc(C[Se]C#N)c1
- IC50 [10]: 130 to 270 nM
- IC50 [15]: 100 to 450 nM
- IC50 [16]: 200 to 1300 nM

SMILES: COc1cc2c(cc1O)[C@H]1CC[C@]3(C)[C@@H](O)CC[C@H]3[C@@H]1CC2
- Ki [17]: 69000 nM
- Ki [18]: 28000 nM

SMILES: O=c1cc(-c2ccccc2)oc2cc(O)ccc12 [7-HYDROXYFLAVONE]
- IC50 [2]: 250 nM

SMILES: Oc1ccc(/C=C/c2cc(O)cc(O)c2)cc1 [RESVERATROL]
- Ki [20]: 11200 nM
- Ki [21]: 800 nM

SMILES: N#C[Se]Cc1ccccc1 [BENZYLSELENOCYANATE]
- IC50 [10]: 130 to 270 nM
- IC50 [15]: 100 to 450 nM
- IC50 [16]: 200 to 1300 nM

More lines, main results first:

- IC50 [2]: 19 nM
SMILES: COc1ccc(-c2cc(=O)c3c(O)cc(O)cc3o2)cc1OC

- Ki [3]: 6000 nM
SMILES: CC(C)=CCOc1c2ccoc2cc2oc(=O)ccc12 [ISOIMPERATORIN]

- IC50 [4]: 2200 nM
- Ki [4]: 700 nM
- IC50 [5]: 5500 nM
SMILES: O=C1c2ccccc2C(=O)c2c(O)c(O)cc(O)c21 [PURPURIN]
- Ratio IC50 [6]: 2.5

- IC50 [7]: 400 nM
- IC50 [8]: 530 nM
SMILES: Cc1cc(Cl)c2c(c1N)C(=O)c1ccccc1C2=O

- IC50 [9]: 9900 nM
SMILES: COc1ccc2cc3[n+](cc2c1OC)CCc1cc(O)c(O)cc1-3

- kinact [11]: 0.000667 s⁻¹
- Ki [12]: 2300 nM
SMILES: CC#Cc1ccc(-c2ccccc2)cc1

- Ki [4]: 500 nM
SMILES: O=C1c2ccccc2C(=O)c2c1ccc(O)c2O [ATHRAQUINONES A]

- IC50 [9]: 4100 nM
SMILES: COc1c(O)ccc2cc3[n+](cc12)CCc1cc2c(cc1-3)OCO2 [THALIDENDINE]

- Ki [19]: 3700 nM
SMILES: COc1ccc(-c2coc3cc(O)ccc3c2=O)cc1 [FORMONONETIN]

From ChEMBL document CHEMBL4033668, “Inhibitors of cytochrome P450 (CYP) 1B1” (Eur J Med Chem, 2017)
